Source: ChEMBL document CHEMBL4017443, “(-)-UB006: A new fatty acid synthase inhibitor and cytotoxic agent without anorexic side effects” (Eur J Med Chem, 2017)
Calls of active or inactive are those of the source. No cut-off for these calls is given here.

Columns and labels:
MDA-MB-231 = assay: Antiproliferative activity against human MDA-MB-231 cells after 72 hrs by MTT assay; assay type: functional, cell-based; settings: MDA-MB-231, 72 h
PC-3 = assay: Antiproliferative activity against human PC3 cells after 72 hrs by MTT assay; assay type: functional, cell-based; settings: PC-3, 72 h
Fibroblast = assay: Antiproliferative activity against fibroblasts (unknown origin) after 72 hrs by MTT assay; assay type: cell-based
MIA PaCa-2 = assay: Antiproliferative activity against human MIAPaCa2 cells after 72 hrs by MTT assay; assay type: functional, cell-based; settings: MIA PaCa-2, 72 h
OVCAR-3 = assay: Antiproliferative activity against human OVCAR3 cells after 72 hrs by MTT assay; assay type: functional, cell-based; settings: OVCAR-3, 72 h
SK-BR-3 = assay: Antiproliferative activity against human SKBR3 cells after 72 hrs by MTT assay; assay type: functional, cell-based; settings: SK-BR-3, 72 h
HCT-116 = assay: Antiproliferative activity against human HCT116 cells after 72 hrs by MTT assay; assay type: functional, cell-based; settings: HCT-116, 72 h
Fatty acid synthase = Fatty acid synthase (Rattus norvegicus, UniProt P12785); assay: Inhibition of fatty acid synthase in rat cytosolic hepatic extracts using acetyl CoA and malonyl CoA as substrate preincubated for 30 mins followed by acetyl CoA addition and subsequent incubation for 3 mins prior to malonyl CoA addition measured after 10 mins in presence of NADPH by spectrophotometric method
MCF7 = assay: cells; settings: Homo sapiens, MCF7, 72 h
Mus musculus [1] = assay: Toxicity in ip dosed C57/BL6J mouse assessed as decrease in body weight; assay type: organism-based; settings: in vivo
Rattus norvegicus [2] = assay: Toxicity in icv dosed Sprague-Dawley rats assessed as decrease in body weight; assay type: organism-based; settings: in vivo, icv_or_intrathecal
[3] = molecular target: T1, Carnitine O-palmitoyltransferase 1, liver isoform (Rattus norvegicus, UniProt P32198); assay: Inhibition of rat wild-type CPT1A expressed in yeast mitochondrial extracts using L-[methyl-3H]carnitine and palmitoyl-CoA as substrates preincubated for 1 min followed by substrate addition measured for 5 mins by radiometric method
T1 sequence (P32198 whole entry): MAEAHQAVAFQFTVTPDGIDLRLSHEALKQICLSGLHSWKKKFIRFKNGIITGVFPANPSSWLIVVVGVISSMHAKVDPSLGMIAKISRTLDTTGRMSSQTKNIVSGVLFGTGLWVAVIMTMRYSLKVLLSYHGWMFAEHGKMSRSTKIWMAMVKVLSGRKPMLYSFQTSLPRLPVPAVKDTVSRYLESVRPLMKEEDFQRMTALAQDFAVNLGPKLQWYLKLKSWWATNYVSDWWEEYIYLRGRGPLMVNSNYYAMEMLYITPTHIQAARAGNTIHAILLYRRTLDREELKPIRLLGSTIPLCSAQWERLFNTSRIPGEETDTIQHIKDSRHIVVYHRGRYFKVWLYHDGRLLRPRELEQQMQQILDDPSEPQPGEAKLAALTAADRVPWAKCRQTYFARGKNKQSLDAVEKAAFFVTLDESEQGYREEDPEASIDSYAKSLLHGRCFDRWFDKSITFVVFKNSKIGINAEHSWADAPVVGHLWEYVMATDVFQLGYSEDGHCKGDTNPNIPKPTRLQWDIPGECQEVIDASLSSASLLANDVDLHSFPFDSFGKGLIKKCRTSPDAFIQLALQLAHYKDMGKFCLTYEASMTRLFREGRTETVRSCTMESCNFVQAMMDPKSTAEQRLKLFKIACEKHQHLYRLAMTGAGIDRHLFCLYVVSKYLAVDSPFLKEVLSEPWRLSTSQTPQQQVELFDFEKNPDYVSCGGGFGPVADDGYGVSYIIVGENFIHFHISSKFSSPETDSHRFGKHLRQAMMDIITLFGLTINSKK

[4] = molecular target: Ribosomal protein S6 kinase beta-1 (Homo sapiens) (UniProt P23443); assay: Inhibition of S6K1 phosphorylation at T389 in human OVCAR3 cells at 29.74 uM after 24 hrs by Western blot analysis; assay type: cell-based
Sequence of Ribosomal protein S6 kinase beta-1 (Homo sapiens) (P23443 whole entry, looked up): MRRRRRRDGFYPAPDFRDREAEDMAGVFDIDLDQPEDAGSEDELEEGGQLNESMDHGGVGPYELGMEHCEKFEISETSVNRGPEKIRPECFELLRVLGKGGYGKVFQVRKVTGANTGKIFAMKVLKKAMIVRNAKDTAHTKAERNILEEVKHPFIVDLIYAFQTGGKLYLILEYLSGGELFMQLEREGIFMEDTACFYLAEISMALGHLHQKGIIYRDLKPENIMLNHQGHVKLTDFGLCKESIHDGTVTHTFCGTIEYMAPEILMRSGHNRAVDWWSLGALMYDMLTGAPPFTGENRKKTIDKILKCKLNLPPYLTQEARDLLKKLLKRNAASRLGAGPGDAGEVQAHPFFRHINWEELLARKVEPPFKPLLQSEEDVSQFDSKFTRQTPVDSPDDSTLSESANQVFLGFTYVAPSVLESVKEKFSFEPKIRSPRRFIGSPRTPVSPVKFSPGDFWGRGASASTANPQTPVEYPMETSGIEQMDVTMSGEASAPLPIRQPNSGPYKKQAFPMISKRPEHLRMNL

Rattus norvegicus [5] = assay: Toxicity in Sprague-Dawley rats assessed as decrease in food intake at 30 mM, icv measured after 1 to 22 hrs; settings: in vivo, icv_or_intrathecal, 30000 µM
Mus musculus [6] = assay: Toxicity in C57/BL6J mouse assessed as decrease in food intake at 15 mg/kg, ip administered once daily for 3 days measured after 2 days; assay type: organism-based; settings: in vivo, 48 h
Rattus norvegicus [7] = assay: Toxicity in Sprague-Dawley rats assessed as decrease in body weight at 33 mM, icv measured every day for 3 days; settings: in vivo, icv_or_intrathecal, 72 h, 33000 µM
Mus musculus [8] = assay: Toxicity in C57/BL6J mouse assessed as decrease in body weight at 15 mg/kg, ip administered once daily for 3 days measured after 2 days; assay type: organism-based; settings: in vivo, 48 h
[9] = molecular target: Fatty acid synthase (Homo sapiens) (UniProt P49327); settings: 8 ug/ml
Sequence of Fatty acid synthase (Homo sapiens) (P49327 whole entry, looked up): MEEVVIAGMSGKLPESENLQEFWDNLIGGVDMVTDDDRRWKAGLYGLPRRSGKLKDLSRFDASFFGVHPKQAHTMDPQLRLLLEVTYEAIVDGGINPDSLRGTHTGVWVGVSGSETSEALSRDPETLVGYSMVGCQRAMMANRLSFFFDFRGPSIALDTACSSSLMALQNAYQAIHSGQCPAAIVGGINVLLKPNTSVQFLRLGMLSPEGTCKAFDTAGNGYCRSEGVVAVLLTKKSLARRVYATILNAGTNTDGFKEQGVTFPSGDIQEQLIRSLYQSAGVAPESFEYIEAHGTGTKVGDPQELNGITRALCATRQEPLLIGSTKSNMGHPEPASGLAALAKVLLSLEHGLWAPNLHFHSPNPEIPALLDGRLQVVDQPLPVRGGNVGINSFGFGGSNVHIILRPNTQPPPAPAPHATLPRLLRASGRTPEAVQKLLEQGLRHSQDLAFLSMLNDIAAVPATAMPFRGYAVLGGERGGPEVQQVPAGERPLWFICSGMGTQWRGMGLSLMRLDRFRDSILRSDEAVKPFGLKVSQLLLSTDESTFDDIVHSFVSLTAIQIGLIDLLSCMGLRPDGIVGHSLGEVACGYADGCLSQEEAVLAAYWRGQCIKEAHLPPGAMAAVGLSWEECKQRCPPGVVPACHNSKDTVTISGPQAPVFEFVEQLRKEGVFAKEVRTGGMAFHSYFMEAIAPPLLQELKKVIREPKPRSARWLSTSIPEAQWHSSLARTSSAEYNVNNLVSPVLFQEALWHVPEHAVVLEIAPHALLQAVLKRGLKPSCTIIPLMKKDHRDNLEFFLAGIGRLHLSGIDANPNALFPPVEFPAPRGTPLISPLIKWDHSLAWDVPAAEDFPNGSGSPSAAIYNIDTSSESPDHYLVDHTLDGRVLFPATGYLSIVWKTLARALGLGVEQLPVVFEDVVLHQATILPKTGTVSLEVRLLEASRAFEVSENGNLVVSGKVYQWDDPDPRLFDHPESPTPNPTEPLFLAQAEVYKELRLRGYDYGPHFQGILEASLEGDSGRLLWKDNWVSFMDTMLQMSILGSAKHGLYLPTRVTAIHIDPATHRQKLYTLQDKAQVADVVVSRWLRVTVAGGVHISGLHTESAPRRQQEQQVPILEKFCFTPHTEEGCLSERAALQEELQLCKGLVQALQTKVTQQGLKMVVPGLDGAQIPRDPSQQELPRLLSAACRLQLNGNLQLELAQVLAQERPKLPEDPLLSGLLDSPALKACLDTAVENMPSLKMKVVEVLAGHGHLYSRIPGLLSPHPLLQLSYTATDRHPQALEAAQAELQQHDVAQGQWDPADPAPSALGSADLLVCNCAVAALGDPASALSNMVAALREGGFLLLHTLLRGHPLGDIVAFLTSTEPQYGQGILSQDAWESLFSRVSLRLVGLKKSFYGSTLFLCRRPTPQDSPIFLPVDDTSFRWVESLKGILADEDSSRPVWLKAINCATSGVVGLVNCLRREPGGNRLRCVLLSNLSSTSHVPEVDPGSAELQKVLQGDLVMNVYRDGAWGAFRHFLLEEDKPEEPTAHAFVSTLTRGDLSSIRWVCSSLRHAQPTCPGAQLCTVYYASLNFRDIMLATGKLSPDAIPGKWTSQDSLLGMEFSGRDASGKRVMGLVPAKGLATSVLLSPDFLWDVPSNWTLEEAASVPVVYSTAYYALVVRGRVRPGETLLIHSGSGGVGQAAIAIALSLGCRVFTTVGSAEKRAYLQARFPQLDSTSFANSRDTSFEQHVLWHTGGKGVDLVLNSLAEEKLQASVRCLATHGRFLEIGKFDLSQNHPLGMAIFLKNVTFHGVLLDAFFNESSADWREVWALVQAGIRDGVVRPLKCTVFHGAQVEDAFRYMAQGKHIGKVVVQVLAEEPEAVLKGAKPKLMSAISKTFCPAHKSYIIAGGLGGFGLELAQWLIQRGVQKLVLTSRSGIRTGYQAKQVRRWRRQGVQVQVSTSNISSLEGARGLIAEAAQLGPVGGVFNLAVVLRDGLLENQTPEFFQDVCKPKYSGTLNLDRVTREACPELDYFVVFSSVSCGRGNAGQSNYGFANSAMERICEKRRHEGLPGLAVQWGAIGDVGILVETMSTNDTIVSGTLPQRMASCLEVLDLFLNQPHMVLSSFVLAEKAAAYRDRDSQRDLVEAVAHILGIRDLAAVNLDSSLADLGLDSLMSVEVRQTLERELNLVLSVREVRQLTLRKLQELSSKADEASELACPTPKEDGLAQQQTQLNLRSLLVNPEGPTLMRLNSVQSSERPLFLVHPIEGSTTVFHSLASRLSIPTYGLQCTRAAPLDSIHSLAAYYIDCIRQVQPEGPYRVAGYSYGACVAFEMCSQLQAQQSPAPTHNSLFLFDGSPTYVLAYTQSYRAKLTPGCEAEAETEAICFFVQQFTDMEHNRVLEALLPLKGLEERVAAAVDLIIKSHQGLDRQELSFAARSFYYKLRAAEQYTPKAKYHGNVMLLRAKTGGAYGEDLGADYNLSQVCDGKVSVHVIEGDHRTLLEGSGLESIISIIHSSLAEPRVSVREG
Description: Inhibition of fatty acid synthase in human OVCAR3 cells assessed as reduction in fatty acid synthesis at 8 ug/ml pretreated for 2 hrs followed by [U14C]-acetate addition measured after 2 hrs by scintillation counting method relative to control

Row | Structure (SMILES) | IC50 (MDA-MB-231) [µM] | IC50 (PC-3) [µM] | IC50 (Fibroblast) [µM] | IC50 (MIA PaCa-2) [µM] | IC50 (OVCAR-3) [µM] | IC50 (SK-BR-3) [µM] | IC50 (HCT-116) [µM] | IC50 (MCF7) [µM] | IC50 [3] [µM] | also measured
1 | C=C1C(=O)O[C@@H](CCCCCCCC)[C@@H]1C(=O)O | 57.7 | 34.3 | > 117 | 25.3 | 17.9 | 38.2 | 74.8 | 46.4 |  | IC50 (Fatty acid synthase): 440 to 498 µM
2 | CCCCCCCCC1OC(=O)C(CSCCNC(=O)CCNC(=O)[C@H](O)C(C)(C)COP(=O)(O)OP(=O)(O)OC[C@H]2O[C@@H](n3cnc4c(N)ncnc43)[C@H](O)[C@@H]2OP(=O)(O)O)C1CO (mixture of isomers) |  |  |  |  |  |  |  |  | 15.7 | Activity (Mus musculus [1]): Non-Toxic; Activity (Rattus norvegicus [2]): Non-Toxic
3 | C=C1C(=O)O[C@@H](CCCCCCCC)[C@@H]1CO |  |  |  |  |  |  |  |  |  | inhibition [4]: Active
4 | CCCCCCCCC1OC(=O)C(CSCCNC(=O)CCNC(=O)[C@H](O)C(C)(C)COP(=O)(O)OP(=O)(O)OC[C@H]2O[C@@H](n3cnc4c(N)ncnc43)[C@H](O)[C@@H]2OP(=O)(O)O)C1C(=O)O (mixture of isomers) |  |  |  |  |  |  |  |  | 1.1 | 
5 | C=C1C(=O)OC(CCCCCCCC)C1C(=O)O (racemic) | 43.8 | 26.8 | 63.2 | 21.8 | 21.9 | 19.8 | 46.4 | 27.3 |  | Activity (Rattus norvegicus [5]): Toxic; Activity (Mus musculus [6]): Toxic; Activity (Rattus norvegicus [7]): Toxic; Activity (Mus musculus [8]): Toxic; inhibition [9]: 38%
